Results taken from patent publication US9682995B2, “Amino-substituted isothiazoles” (BAYER PHARMA AKTIENGESELLSCHAFT, priority 2013, dated 2017).

Legend:
Test in all cases: Kinase Profiling (KINOMEscan)
Assay type in all cases: binding
[1] = molecular target: 456 kinases (of these 395 non-mutant kinases) (Homo sapiens, UniProt O95382); details: ASK2; 10 μM
[2] = molecular target: 456 kinases (of these 395 non-mutant kinases) (Homo sapiens, UniProt P00519, F317L); details: 10 μM
[3] = molecular target: 456 kinases (of these 395 non-mutant kinases) (Homo sapiens, UniProt P21860); details: ERBB3; 10 μM
[4] = molecular target: 456 kinases (of these 395 non-mutant kinases) (Homo sapiens, UniProt P23443); details: S6K1; 10 μM
[5] = molecular target: 456 kinases (of these 395 non-mutant kinases) (Homo sapiens, UniProt P27361); details: ERK1; 10 μM
[6] = molecular target: 456 kinases (of these 395 non-mutant kinases) (Homo sapiens, UniProt P36888, K663Q); details: FLT3(K663Q); 10 μM
[7] = molecular target: 456 kinases (of these 395 non-mutant kinases) (Homo sapiens, UniProt P36888, R834Q); details: FLT3(R834Q); 10 μM
[8] = molecular target: 456 kinases (of these 395 non-mutant kinases) (Homo sapiens, UniProt P52333); details: JAK3(JH1domain-catalytic); 10 μM
[9] = molecular target: 456 kinases (of these 395 non-mutant kinases) (Homo sapiens, UniProt P57078); details: RIPK4; 10 μM
[10] = molecular target: 456 kinases (of these 395 non-mutant kinases) (Homo sapiens, UniProt Q13163); details: MEK5; 10 μM
[11] = molecular target: 456 kinases (of these 395 non-mutant kinases) (Homo sapiens, UniProt Q14012); details: CAMK1; 10 μM
[12] = molecular target: 456 kinases (of these 395 non-mutant kinases) (Homo sapiens, UniProt Q8IYT8); details: ULK2; 10 μM
[13] = molecular target: 456 kinases (of these 395 non-mutant kinases) (Homo sapiens, UniProt Q9NRM7); details: LATS2; 10 μM
[14] = molecular target: 456 kinases (of these 395 non-mutant kinases) (Homo sapiens, UniProt Q9P1W9); details: PIM2; 10 μM
[15] = molecular target: 456 kinases (of these 395 non-mutant kinases) (Homo sapiens, UniProt Q9Y2K2); details: QSK; 10 μM
[16] = molecular target: 456 kinases (of these 395 non-mutant kinases) (Homo sapiens, UniProt Q9Y4K4); details: MAP4K5; 10 μM
[17] = molecular target: 456 kinases (of these 395 non-mutant kinases) (Homo sapiens, UniProt Q9Y616); details: IRAK3; 10 μM

Sequence of 456 kinases (of these 395 non-mutant kinases) (Homo sapiens, UniProt P21860) (P21860 20-1342 limits assumed, change not shown): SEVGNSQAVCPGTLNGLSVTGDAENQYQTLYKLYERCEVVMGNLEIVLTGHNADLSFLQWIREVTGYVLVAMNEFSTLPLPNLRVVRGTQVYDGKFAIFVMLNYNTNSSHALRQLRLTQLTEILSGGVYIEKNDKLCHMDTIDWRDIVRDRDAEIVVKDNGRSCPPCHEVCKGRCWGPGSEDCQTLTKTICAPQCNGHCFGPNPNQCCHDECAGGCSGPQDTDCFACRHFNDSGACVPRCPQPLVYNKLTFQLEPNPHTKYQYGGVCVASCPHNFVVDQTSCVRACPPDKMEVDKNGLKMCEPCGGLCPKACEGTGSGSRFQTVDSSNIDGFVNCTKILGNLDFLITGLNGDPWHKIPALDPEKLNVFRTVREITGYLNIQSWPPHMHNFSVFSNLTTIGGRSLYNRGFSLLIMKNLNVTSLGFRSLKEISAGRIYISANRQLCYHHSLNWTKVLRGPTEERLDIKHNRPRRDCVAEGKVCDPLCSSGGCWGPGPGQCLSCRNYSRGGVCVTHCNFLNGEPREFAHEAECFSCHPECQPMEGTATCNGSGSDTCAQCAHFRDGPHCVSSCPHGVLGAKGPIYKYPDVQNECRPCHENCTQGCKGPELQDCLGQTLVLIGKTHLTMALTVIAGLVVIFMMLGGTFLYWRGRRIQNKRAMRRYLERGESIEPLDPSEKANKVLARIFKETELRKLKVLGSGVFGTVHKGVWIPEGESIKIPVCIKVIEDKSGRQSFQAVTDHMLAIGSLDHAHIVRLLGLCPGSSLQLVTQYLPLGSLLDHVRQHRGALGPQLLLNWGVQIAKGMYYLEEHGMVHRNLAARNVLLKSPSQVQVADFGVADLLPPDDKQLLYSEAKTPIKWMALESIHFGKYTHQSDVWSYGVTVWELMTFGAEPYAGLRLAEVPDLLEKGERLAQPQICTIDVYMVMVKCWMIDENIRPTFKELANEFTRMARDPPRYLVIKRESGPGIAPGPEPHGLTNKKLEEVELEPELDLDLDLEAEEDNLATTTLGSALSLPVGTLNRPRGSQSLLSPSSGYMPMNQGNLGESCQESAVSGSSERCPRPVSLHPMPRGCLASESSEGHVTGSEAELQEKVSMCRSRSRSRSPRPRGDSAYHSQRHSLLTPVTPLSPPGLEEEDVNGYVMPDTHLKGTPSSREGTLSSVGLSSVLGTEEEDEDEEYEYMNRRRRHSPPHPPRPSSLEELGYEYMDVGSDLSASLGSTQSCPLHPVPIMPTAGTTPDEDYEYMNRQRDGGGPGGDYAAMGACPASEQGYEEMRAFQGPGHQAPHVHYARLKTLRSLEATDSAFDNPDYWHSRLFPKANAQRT
Sequence of 456 kinases (of these 395 non-mutant kinases) (Homo sapiens, UniProt P27361) (P27361 2-379 limits assumed, stated change not applied): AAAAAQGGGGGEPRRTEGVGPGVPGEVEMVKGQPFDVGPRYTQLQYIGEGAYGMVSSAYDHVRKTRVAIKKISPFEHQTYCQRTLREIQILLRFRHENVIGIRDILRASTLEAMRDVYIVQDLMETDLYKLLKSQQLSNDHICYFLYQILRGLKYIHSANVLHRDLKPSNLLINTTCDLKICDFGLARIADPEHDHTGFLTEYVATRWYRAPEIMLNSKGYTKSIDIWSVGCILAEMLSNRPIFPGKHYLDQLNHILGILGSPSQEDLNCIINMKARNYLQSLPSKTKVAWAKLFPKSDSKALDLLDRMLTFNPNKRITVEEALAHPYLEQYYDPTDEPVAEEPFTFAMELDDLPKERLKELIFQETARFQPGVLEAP

## CCc1ccccc1NC(=O)c1c(C)nsc1Nc1cnc2cc(F)ccc2n1 [Example 20, N-(2-Ethylphenyl)-5-[(6-fluoroquinoxalin-2-yl)amino]-3-methyl-1,2-thiazole-4-carboxamide]
[1]
  % Ctrl @ 10 μM: 73 % Ctrl
[2]; ABL1(F317L)-nonphosphorylated
  % Ctrl @ 10 μM: 100 % Ctrl
[2]; ABL1(F317L)-phosphorylated
  % Ctrl @ 10 μM: 100 % Ctrl
[3]
  % Ctrl @ 10 μM: 99 % Ctrl
[4]
  % Ctrl @ 10 μM: 100 % Ctrl
[5]
  % Ctrl @ 10 μM: 100 % Ctrl
[6]
  % Ctrl @ 10 μM: 75 % Ctrl
[7]
  % Ctrl @ 10 μM: 93 % Ctrl
[8]
  % Ctrl @ 10 μM: 82 % Ctrl
[9]
  % Ctrl @ 10 μM: 100 % Ctrl
[10]
  % Ctrl @ 10 μM: 100 % Ctrl
[11]
  % Ctrl @ 10 μM: 68 % Ctrl
[12]
  % Ctrl @ 10 μM: 100 % Ctrl
[13]
  % Ctrl @ 10 μM: 94 % Ctrl
[14]
  % Ctrl @ 10 μM: 100 % Ctrl
[15]
  % Ctrl @ 10 μM: 91 % Ctrl
[16]
  % Ctrl @ 10 μM: 89 % Ctrl
[17]
  % Ctrl @ 10 μM: 100 % Ctrl
